Assay results from ChEMBL document CHEMBL1201862, “PubChem BioAssay data set” (2004).
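1) Cells in 96-well plates. 2) Compound, 48 h, 5 concentrations. 3) Linear interpolation between surrounding doses. 4) Unreached endpoint = highest concentration. GI50: concentration for 50% inhibition of growth.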 The source made the active and inactive calls. Rule as the data show it: active = GI50 up to about 1.1 µM and inactive = higher. Starred links: 1 amine or outer side, 2 acyl side, 3 side chain; linkers in the order of their positions; H or OH if unused. Positions of bridges follow the written chain, without caps; N, C: chain ends. Non-standard residues stand in square brackets, D forms with d. Residues, ends and D or L forms follow the SMILES beside them. Chains are numbered I, II in the order given. Actinocin(1to9) = Cc1c2oc3c(C)ccc(C(=O)[*:2])c3nc-2c(C(=O)[*:1])c(N)c1=O; aThr = C[C@H](O)[C@H](N)C(=O)O; NMeV = CN[C@H](C(=O)O)C(C)C; Sar = CNCC(=O)O

Columns and labels:
Assay in all cases: NCI anticancer screen, dose series, 48 h
786-0 = tested on: 786-0
A549 = tested on: A549
EKVX = tested on: EKVX
HCC 2998 = tested on: HCC 2998
HL-60 = tested on: HL-60
HT-29 = tested on: HT-29
K562 = tested on: K562
LOX IMVI = tested on: LOX IMVI
M19-MEL = tested on: M19-MEL
Malme-3M = tested on: Malme-3M
NCI-H226 = tested on: NCI-H226
NCI-H23 = tested on: NCI-H23
NCI-H460 = tested on: NCI-H460
SK-MEL-5 = tested on: SK-MEL-5
SN12C = tested on: SN12C
SW-620 = tested on: SW-620
UO-31 = tested on: UO-31
DU-145 = tested on: DU-145
MCF7 = tested on: MCF7
NCI/ADR-RES = tested on: NCI/ADR-RES

| Compound | GI50 (786-0) | GI50 (A549) | GI50 (EKVX) | GI50 (HCC 2998) | GI50 (HL-60) | GI50 (HT-29) | GI50 (K562) | GI50 (LOX IMVI) | GI50 (M19-MEL) | GI50 (Malme-3M) | GI50 (NCI-H226) | GI50 (NCI-H23) | GI50 (NCI-H460) | GI50 (SK-MEL-5) | GI50 (SN12C) | GI50 (SW-620) | GI50 (UO-31) | GI50 (DU-145) | GI50 (MCF7) | GI50 (NCI/ADR-RES) |
| --- | --- | --- | --- | --- | --- | --- | --- | --- | --- | --- | --- | --- | --- | --- | --- | --- | --- | --- | --- | --- |
| O=[N+]([O-])c1ccc2nc(/C(=N\Nc3ccccc3)C(O)c3ccc4c(c3)OCO4)c(O)nc2c1 (stereo not given) | > 100 µM (inactive) | > 100 µM (inactive) | > 100 µM (inactive) | 75.2 µM (inactive) | 52.1 µM (inactive) | 97.1 µM (inactive) | 36.4 µM (inactive) | > 100 µM (inactive) | > 100 µM (inactive) | > 100 µM (inactive) | > 100 µM (inactive) | > 100 µM (inactive) | > 100 µM (inactive) | > 100 µM (inactive) | > 100 µM (inactive) | 56.1 µM (inactive) | 79.3 µM (inactive) | – | – | – |
| COc1ccc(-c2nc(N)n(C)c2SSc2c(-c3ccc(OC)cc3)nc(N)n2C)cc1 | 5.77 µM (inactive) | 17.5 µM (inactive) | 20.8 µM (inactive) | 17.8 µM (inactive) | 2.59 µM (inactive) | 9.59 µM (inactive) | 2.83 µM (inactive) | 2.03 µM (inactive) | 2.29 µM (inactive) | 9.42 µM (inactive) | 17.4 µM (inactive) | 5.14 µM (inactive) | 20.8 µM (inactive) | 2.08 µM (inactive) | 11.3 µM (inactive) | 2.23 µM (inactive) | 5.25 µM (inactive) | 17.3 µM (inactive) | 8.51 µM (inactive) | 14.2 µM (inactive) |
| O=C(O)CCC(NC(=O)c1ccc(Nc2nc3cc(C(F)(F)F)ccc3nc2-c2ccccc2)cc1)C(=O)O (stereo not given) | – | > 86.1 µM (inactive) | > 100 µM (inactive) | 66.5 µM (inactive) | 84.3 µM (inactive) | 18.8 µM (inactive) | 34.4 µM (inactive) | 44.9 µM (inactive) | > 100 µM (inactive) | > 100 µM (inactive) | > 100 µM (inactive) | > 100 µM (inactive) | 43.3 µM (inactive) | > 100 µM (inactive) | > 100 µM (inactive) | 68.1 µM (inactive) | > 94.6 µM (inactive) | – | 64.9 µM (inactive) | 62.1 µM (inactive) |
| NNC(=O)/C(NC(=O)c1ccccc1)=C(\N)c1ccc(Cl)cc1 | > 100 µM (inactive) | > 100 µM (inactive) | > 100 µM (inactive) | > 100 µM (inactive) | > 100 µM (inactive) | > 100 µM (inactive) | 89.3 µM (inactive) | > 100 µM (inactive) | > 100 µM (inactive) | > 100 µM (inactive) | > 100 µM (inactive) | > 100 µM (inactive) | > 100 µM (inactive) | > 100 µM (inactive) | > 100 µM (inactive) | > 100 µM (inactive) | > 100 µM (inactive) | – | – | – |
| COc1cc2c(cc1OC)C(C(c1ccccc1)c1ccccc1)N(C)CC2 (stereo not given) | – | > 100 µM (inactive) | > 100 µM (inactive) | 26.3 µM (inactive) | 40.6 µM (inactive) | 35.1 µM (inactive) | 40.8 µM (inactive) | > 81.1 µM (inactive) | > 91.6 µM (inactive) | 23.8 µM (inactive) | > 92.9 µM (inactive) | > 100 µM (inactive) | > 89.1 µM (inactive) | 21 µM (inactive) | > 100 µM (inactive) | > 100 µM (inactive) | > 63.7 µM (inactive) | – | 52.4 µM (inactive) | 68.9 µM (inactive) |
| CC(C)(c1ccc(OC#N)cc1)c1ccc(OC#N)cc1 | > 100 µM (inactive) | > 100 µM (inactive) | > 100 µM (inactive) | > 100 µM (inactive) | > 55 µM (inactive) | > 100 µM (inactive) | > 70 µM (inactive) | > 48.4 µM (inactive) | > 82.6 µM (inactive) | > 100 µM (inactive) | > 100 µM (inactive) | > 100 µM (inactive) | > 58.7 µM (inactive) | > 100 µM (inactive) | > 100 µM (inactive) | > 100 µM (inactive) | > 100 µM (inactive) | – | – | – |
| Cc1ccc(OC(=O)N2C/C(=C\c3ccccc3)C(=O)/C(=C/c3ccccc3)C2)cc1 | 17.1 µM (inactive) | > 69.5 µM (inactive) | > 100 µM (inactive) | 10 µM (inactive) | 3.84 µM (inactive) | 4.93 µM (inactive) | 3.94 µM (inactive) | 3.29 µM (inactive) | 5.53 µM (inactive) | > 76 µM (inactive) | 56.5 µM (inactive) | 26.4 µM (inactive) | 53 µM (inactive) | 20.6 µM (inactive) | 24.8 µM (inactive) | 4.47 µM (inactive) | 36.9 µM (inactive) | > 100 µM (inactive) | 5.14 µM (inactive) | – |
| O=C1C=C2SC3C[C@@]24CC1[N+]1=c2c4c(c(O)c4c2=C(C=N4)CC1)N3 | – | 6.17 µM (inactive) | 2.27 µM (inactive) | 2.74 µM (inactive) | 1.46 µM (inactive) | – | 2.44 µM (inactive) | 2.51 µM (inactive) | 1.9 µM (inactive) | 1.85 µM (inactive) | 2.29 µM (inactive) | – | 3.2 µM (inactive) | 1.88 µM (inactive) | 2.67 µM (inactive) | 2.62 µM (inactive) | 16.6 µM (inactive) | – | 2.08 µM (inactive) | 6.68 µM (inactive) |
| Cc1c2oc3c(C)ccc(C(=O)N[C@@H]4C(=O)N[C@H](C(C)C)C(=O)N5CCC[C@H]5C(=O)N(C)CC(=O)N(C)[C@@H](C(C)C)C(=O)O[C@H]4C)c3nc-2c(C(=O)N[C@@H]2C(=O)N[C@H](C(C)C)C(=O)N3CCC[C@H]3C(=O)N(C)CC(=O)N(C)[C@@H](C(C)C)C(=O)O[C@H]2C)c(N)c1=O (I: [aThr][dV]P[Sar][NMeV] / II: [aThr][dV]P[Sar][NMeV]; ester I:1-I:C, II:1-II:C; linker I:N-II:N via Actinocin(1to9)) | 0.000951 µM (active) | 0.00206 µM (active) | 0.012 µM (active) | 0.00275 µM (active) | 0.00231 µM (active) | 0.000759 µM (active) | 0.000492 µM (active) | 0.000518 µM (active) | 0.00155 µM (active) | 0.00119 µM (active) | 0.00195 µM (active) | 0.00219 µM (active) | 0.000424 µM (active) | 0.00115 µM (active) | 0.00185 µM (active) | 0.000489 µM (active) | 0.015 µM (active) | 0.00393 µM (active) | 0.000189 µM (active) | 0.098 µM (active) |
| Oc1cc(O)cc(/C=C/c2ccc(O)c(O)c2)c1 [PICEATANNOL] | – | 18.8 µM (inactive) | 28.2 µM (inactive) | 16.7 µM (inactive) | 2.74 µM (inactive) | 23.2 µM (inactive) | 4.49 µM (inactive) | 11.9 µM (inactive) | 12.2 µM (inactive) | 26.1 µM (inactive) | 19.5 µM (inactive) | 17.3 µM (inactive) | 22.2 µM (inactive) | 11.1 µM (inactive) | 12.4 µM (inactive) | 13 µM (inactive) | 10.4 µM (inactive) | – | 20.1 µM (inactive) | 16.6 µM (inactive) |
